Laboratory results published in PubChem BioAssay AID330 (DTP/NCI, 2004).
Where “and” joins values, the source holds several entries; their conditions need not be identical. Equal values may be shown once. Inconclusive results and toxic doses are left out. Rule for the calls: active = survival T/C of 150% or more; inactive = T/C below 125% in these data.

Test system: P388 leukemia ip, CD2F1 mice, survival T/C
Test: NCI In Vivo Anticancer Drug Screen. Data for tumor model P388 Leukemia (intraperitoneal) in CD2F1 (CDF1) mice
Settings: endpoint: median survival time, higher = longer survival
How it was run: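 Mice carrying the transplanted tumor received test compound or vehicle. Survival was recorded in each group, and the value is the treated-group measurement divided by that of the vehicle-treated control group.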

[1] = dose: 60.0 mg/kg/injection, schedule: Q01DX005 (ip), vehicle: Klucel (hydroxypropylcellulose) (HPC)
[2] = dose: 120.0 mg/kg/injection, schedule: Q01DX005 (ip), vehicle: Klucel (hydroxypropylcellulose) (HPC)
[3] = dose: 50.0 mg/kg/injection, schedule: Q01DX005 (ip), vehicle: saline with Tween-80
[4] = dose: 100.0 mg/kg/injection, schedule: Q01DX001 (ip), vehicle: saline with Tween-80
[5] = dose: 200.0 mg/kg/injection, schedule: Q01DX001 (ip), vehicle: saline with Tween-80
[6] = dose: 400.0 mg/kg/injection, schedule: Q01DX001 (ip), vehicle: saline with Tween-80

Measured: T/C

O=NN(CCBr)C(=O)Nc1ccccc1
inactive: dose: 66.0 mg/kg/injection, schedule: Q04DX003 (ip), vehicle: saline 118 % of control | dose: 100.0 mg/kg/injection, schedule: Q04DX003 (ip), vehicle: saline 109 % of control | dose: 150.0 mg/kg/injection, schedule: Q04DX003 (ip), vehicle: saline 100 % of control
active: dose: 6.0 mg/kg/injection, schedule: Q01DX009 (ip), vehicle: saline with Tween-80 154 % of control | dose: 12.0 mg/kg/injection, schedule: Q01DX009 (ip), vehicle: saline with Tween-80 177 % of control | dose: 25.0 mg/kg/injection, schedule: Q01DX009 (ip), vehicle: saline with Tween-80 177 % of control | dose: 37.5 mg/kg/injection, schedule: Q01DX009 (ip), vehicle: saline with Tween-80 175 % of control

Oc1cc2c(cc1C(c1ccc(Cl)cc1)N1CCN(C(c3ccc(Cl)cc3)c3cc4c(cc3O)OCO4)CC1)OCO2 (stereo not given)
inactive: [1] 89 % of control | [2] 88 % of control

CCOC(=O)C(C#N)C1(O)C(=O)Nc2ccccc21 (stereo not given)
inactive: dose: 50.0 mg/kg/injection, schedule: Q01DX005 (ip), vehicle: Klucel (hydroxypropylcellulose) (HPC) 104 % of control | dose: 100.0 mg/kg/injection, schedule: Q01DX005 (ip), vehicle: Klucel (hydroxypropylcellulose) (HPC) 102 % of control | dose: 200.0 mg/kg/injection, schedule: Q01DX005 (ip), vehicle: Klucel (hydroxypropylcellulose) (HPC) 103 % of control

OCC1CSC(=S)N1Cc1ccccc1 (stereo not given)
inactive: [1] 97 % of control | [2] 100 % of control | dose: 240.0 mg/kg/injection, schedule: Q01DX005 (ip), vehicle: Klucel (hydroxypropylcellulose) (HPC) 107 % of control

CCOC(=O)C1CC1C(c1cccnc1C)S(=O)(=O)c1ccccc1 (stereo not given)
inactive: dose: 100.0 mg/kg/injection, schedule: Q04DX002 (ip), vehicle: saline with Tween-80 100 % of control | dose: 200.0 mg/kg/injection, schedule: Q04DX002 (ip), vehicle: saline with Tween-80 99 % of control | dose: 400.0 mg/kg/injection, schedule: Q04DX002 (ip), vehicle: saline with Tween-80 97 % of control

O=C(CCCl)OCCCl
inactive: dose: 50.0 mg/kg/injection, schedule: Q01DX009 (ip), vehicle: saline sonified 95 % of control | dose: 100.0 mg/kg/injection, schedule: Q01DX009 (ip), vehicle: saline sonified 100 % of control | dose: 200.0 mg/kg/injection, schedule: Q01DX009 (ip), vehicle: saline sonified 90 % of control

CC1=CC(Cc2ccccc2)N(C)C(C#N)C1 (stereo not given)
inactive: dose: 12.5 mg/kg/injection, schedule: Q01DX005 (ip), vehicle: saline with Tween-80 101 % of control | dose: 25.0 mg/kg/injection, schedule: Q01DX005 (ip), vehicle: saline with Tween-80 105 % of control | [3] 109 % of control and 116 % of control

COc1ccc(O)c(C(c2cc(OC)ccc2O)c2cc(OC)ccc2O)c1
inactive: dose: 50.0 mg/kg/injection, schedule: Q01DX009 (ip), vehicle: saline with Tween-80 115 % of control | dose: 100.0 mg/kg/injection, schedule: Q01DX009 (ip), vehicle: saline with Tween-80 115 % of control | dose: 200.0 mg/kg/injection, schedule: Q01DX009 (ip), vehicle: saline with Tween-80 115 % of control

c1ccc2c(-c3nc4ccccc4c4ccccc34)nccc2c1
inactive: [4] 92 % of control | [5] 92 % of control | [6] 99 % of control

Cc1cc(C)n(-c2ccncc2[N+](=O)[O-])n1
inactive: dose: 50.0 mg/kg/injection, schedule: Q01DX009 (ip), vehicle: saline 101 % of control | dose: 100.0 mg/kg/injection, schedule: Q01DX009 (ip), vehicle: saline 97 % of control | dose: 200.0 mg/kg/injection, schedule: Q01DX009 (ip), vehicle: saline 105 % of control

O=C(Nc1ccccc1)C1(Cl)CCCCC1
inactive: dose: 100.0 mg/kg/injection, schedule: Q01DX001 (ip), vehicle: Klucel (hydroxypropylcellulose) (HPC) 90 % of control | dose: 200.0 mg/kg/injection, schedule: Q01DX001 (ip), vehicle: Klucel (hydroxypropylcellulose) (HPC) 92 % of control | dose: 400.0 mg/kg/injection, schedule: Q01DX001 (ip), vehicle: Klucel (hydroxypropylcellulose) (HPC) 91 % of control

O=C(OC(c1ccccc1)c1ccccc1)C1CSCN1C(=O)OCc1ccccc1[N+](=O)[O-] (stereo not given)
inactive: [3] 108 % of control | dose: 100.0 mg/kg/injection, schedule: Q01DX005 (ip), vehicle: saline with Tween-80 110 % of control | dose: 200.0 mg/kg/injection, schedule: Q01DX005 (ip), vehicle: saline with Tween-80 100 % of control

CC[n+]1c(/C=C/c2ccc(N(CCC(=O)O)CCC(=O)O)cc2)ccc2ccccc21
inactive: dose: 12.5 mg/kg/injection, schedule: Q04DX002 (ip), vehicle: saline with Tween-80 100 % of control | dose: 25.0 mg/kg/injection, schedule: Q04DX002 (ip), vehicle: saline with Tween-80 106 % of control | dose: 50.0 mg/kg/injection, schedule: Q04DX002 (ip), vehicle: saline with Tween-80 106 % of control

Cc1ccc(S(=O)(=O)N/N=C/c2c(-c3ccc(-c4ccccc4)cc3)nc3n2CCS3)cc1
inactive: [4] 100 % of control | [5] 102 % of control | [6] 90 % of control
